Experimental findings from patent publication US20260226062A1, “COMPOSITIONS USEFUL FOR MODULATING SPLICING” (Skyhawk Therapeutics, Inc., priority 2023, published 2026) are described below.

This experiment concerns ATXN3 pre-mRNA. The experiment in a line: ATXN3 Quantitative Splicing Assay (qPCR, E4E5 primers/probe detecting transcripts containing exon 4). It counts as cell-based. The conditions noted are these: Human neuroblastoma SK-N-MC cells, 24 h treatment, qPCR of transcripts containing exon 4; read-out: ATXN3 Potency - Splicing: ATXN3 E4E5 IC50. The method, then:
Human neuroblastoma SK-N-MC cells were plated in 384-well plates at 20,000 cells/well. Twenty-four hours after plating, cells were treated with compounds for 24 h at appropriate concentrations ranging from 30 μM to 0.6 nM (0.3% DMSO). Treated cells were lysed in 15 μL of lysis buffer, and cDNA was synthesized using the Fast Advanced Cells-to-Ct kit. Two μL of each cDNA was used in qPCR reactions to confirm the exon 4 skipped transcripts of ATXN3. A second set of primers/probe E4E5 was used to detect the transcripts containing exon 4. The third set of primers/probe E8E9 was used to detect total gene level of ATXN3. The qPCR reactions were prepared in 384-well plates in 10 μL volume, using TaqMan™ Fast Advanced Master Mix with primers and probes shown in the table below. Reactions were run in a Quant Studio 6 qPCR instrument with default settings.
The primers and probes are listed below in Table 3.
For orientation: Real-time PCR tracks product formation cycle by cycle.
One may read the IC50 as the midpoint of a concentration-inhibition curve. Take `C[C@H](F)[C@H](N)Cc1cc2c(NCc3ncco3)nc(Cl)nn2c1Cl` [Compound 6, 6-((2R,3S)-2-amino-3-fluorobutyl)-2,7-dichloro-N-(oxazol-2-ylmethyl)pyrrolo[2,1-f][1,2,4]triazin-4-amine]: the IC50 is 101 to 500 nM.

As for `C[C@H](F)[C@H](N)Cc1cc2c(NCc3ccsn3)nc(Cl)nn2c1Br` [Compound 8, 6-((2R,3S)-2-amino-3-fluorobutyl)-7-bromo-2-chloro-N-(isothiazol-3-ylmethyl)pyrrolo[2,1-f][1,2,4]triazin-4-amine], the IC50 lay in the range of 0.01 to 100 nM.

On to `C[C@H](F)[C@H](N)Cc1cc2c(NCc3ncco3)nc(Cl)nn2c1Br` [Compound 1, 6-((2R,3S)-2-amino-3-fluorobutyl)-7-bromo-2-chloro-N-(oxazol-2-ylmethyl)pyrrolo[2,1-f][1,2,4]triazin-4-amine], for which the IC50 was 101 to 500 nM.

With `C[C@H](F)[C@H](N)Cc1cc2c(NCc3ccon3)nc(Cl)nn2c1Br` [Compound 7, 6-((2R,3S)-2-amino-3-fluorobutyl)-7-bromo-2-chloro-N-(isoxazol-3-ylmethyl)pyrrolo[2,1-f][1,2,4]triazin-4-amine], the IC50 lay in the range of 101 to 500 nM.

`C[C@H](F)[C@H](N)Cc1cc2c(NCc3nccs3)nc(Cl)nn2c1Cl` [Compound 5, 6-((2R,3S)-2-amino-3-fluorobutyl)-2,7-dichloro-N-(thiazol-2-ylmethyl)pyrrolo[2,1-f][1,2,4]triazin-4-amine]: the IC50 lay within 101 to 500 nM.

Take `Cc1c(C[C@@H](N)[C@H](C)F)cc2c(NCc3ccsn3)nc(Cl)nn12` [Compound 10, 6-((2R,3S)-2-amino-3-fluorobutyl)-2-chloro-N-(isothiazol-3-ylmethyl)-7-methylpyrrolo[2,1-f][1,2,4]triazin-4-amine]: the IC50 is 101 to 500 nM.

With `Cc1c(C[C@@H](N)[C@H](C)F)cc2c(NCc3nccs3)nc(Cl)nn12` [Compound 4, 6-((2R,3S)-2-amino-3-fluorobutyl)-2-chloro-7-methyl-N-(thiazol-2-ylmethyl)pyrrolo[2,1-f][1,2,4]triazin-4-amine], the IC50 was 101 to 500 nM.

Regarding `C[C@H](F)[C@H](N)Cc1cc2c(NCc3nccs3)nc(Cl)nn2c1Br` [Compound 3, 6-((2R,3S)-2-amino-3-fluorobutyl)-7-bromo-2-chloro-N-(thiazol-2-ylmethyl)pyrrolo[2,1-f][1,2,4]triazin-4-amine], the IC50 is 101 to 500 nM.

As for `Cc1c(C[C@@H](N)[C@H](C)F)cc2c(NCc3ncco3)nc(Cl)nn12` [Compound 2, 6-((2R,3S)-2-amino-3-fluorobutyl)-2-chloro-7-methyl-N-(oxazol-2-ylmethyl)pyrrolo[2,1-f][1,2,4]triazin-4-amine], the IC50 was 501 to 5000 nM.

Consider `Cc1c(C[C@@H](N)[C@H](C)F)cc2c(NCc3ccon3)nc(Cl)nn12` [Compound 9, 6-((2R,3S)-2-amino-3-fluorobutyl)-2-chloro-N-(isoxazol-3-ylmethyl)-7-methylpyrrolo[2,1-f][1,2,4]triazin-4-amine], for which the IC50 lay within 501 to 5000 nM.
